Data published in US4738979A, “α2 -blocking derivatives of imidazole” (G. D. Searle & Co., priority 1985, dated 1988).

Legend:
[1] = tested on: α2 adrenergic receptors of the central nervous system; experiment: inhibition of the antihypertensive action of clonidine in spontaneously hypertensive rats (SHR); assay type: in vivo, rat; details: 1 mg/kg p.o., clonidine 50 μg/kg s.c.
Procedure: In the first study, carried out upon unanaesthetized spontaneously hypertensive rats (SHR rats), the ability of the compounds of the present invention to inhibit the antihypertensive action of clonidine was determined.
The antihypertensive activity of clonidine results from an interaction with α2 adrenergic receptors of the central nervous system, i.e., central antihypertensive actions.
In this test, two groups of SHR rats are utilized as follows. In the first group, prior to subcutaneous administration of clonidine (50 μg/kg), the SHR rats are treated with the compound to be tested (1 mg/kg p.o.) dissolved in a saline vehicle. The second group (control group) of SHR rats are treated with the saline vehicle only, prior to subcutaneous administration of clonidine.
The arterial pressure is measured in the region of the median coccygeal artery according to the method of J. Roba, A. F. DeSchaepdrijver, Exp. Anim., 4, 147-162 (1971).
The results of this assay summarized in Table II, column 5, are expressed as a percentage of inhibition of the effect of clonidine.

[2] = target: T1, α2 -adrenergic receptors (Rattus norvegicus, UniProt P22909); experiment: binding to α2-adrenergic receptors on rat brain homogenates (3H-p. aminoclonidine); details: 10^-7 M; for inhibition at 0.1 µM: rat brain homogenates, 0.7 nM 3H-p. aminoclonidine, read-out: % Inhibition of the Specific Binding at 10^-7 M for α2 Recep.; for affinity for α2 receptors (in words): in vitro binding assay
T1 construct: from tissue; host or cells: rat brain homogenates
T1 sequence (P22909 1-465): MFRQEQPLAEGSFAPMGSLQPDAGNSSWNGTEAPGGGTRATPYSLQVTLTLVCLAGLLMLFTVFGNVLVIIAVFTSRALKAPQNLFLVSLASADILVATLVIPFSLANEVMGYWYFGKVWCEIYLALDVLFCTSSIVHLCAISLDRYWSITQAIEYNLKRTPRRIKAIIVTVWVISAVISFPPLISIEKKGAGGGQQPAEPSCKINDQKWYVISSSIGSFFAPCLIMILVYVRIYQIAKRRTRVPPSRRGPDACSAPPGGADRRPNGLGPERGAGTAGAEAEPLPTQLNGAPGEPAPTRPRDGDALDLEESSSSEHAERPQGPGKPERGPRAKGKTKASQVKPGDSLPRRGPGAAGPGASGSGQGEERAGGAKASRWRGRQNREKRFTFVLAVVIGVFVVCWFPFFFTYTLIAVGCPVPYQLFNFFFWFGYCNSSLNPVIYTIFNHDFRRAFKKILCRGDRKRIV
Procedure: (§1) The activity of the compounds according to the invention with respect to binding of the α-adrenergic receptors was determined in vitro according to a method deriving from the works of B. R. Rouot et al., Life Sci., 25, 769 (1979) and of D. U'Prichard et al., Mol. Pharmacol., 13, 454 (1977). This method consists in measuring the binding to the receptor on rat brain homogenates, by marking by means of a specific tritriated ligand placed in competition with the product to be tested.
(§2) In the presenct case the binding to the α1 -adrenergic receptors was measured by means of 1.6 nM of ^3 H-WB 4101 and the binding to the α2 -adrenergic receptors by means of 0.7 nM of ^3 H-p. aminoclonidine, the non-specific binding being determined by 1,000 nM of phentolamine. The results are given in Table II, column 3, and are expressed in terms of percentage of inhibition of the specific binding of 10^-7 molar compound concentration.
(§3) (2) The specific binding is the total binding less the nonspecific
(§4) binding. The total binding is the binding in the absence of nonradioactiv
(§5) drug. The nonspecific binding is the binding in the presence of 1,000 nM
(§6) of phentolamine. The products of the invention are tested at a
(§7) concentration of 10^-7 molar.

[3] = tested on: α1 -adrenergic receptors; experiment: binding to α1-adrenergic receptors on rat brain homogenates (3H-WB 4101); details: 1.6 nM 3H-WB 4101
Procedure: as §1, §2, §3, §4, §5, §6, §7

[4] = tested on: 3-mercaptopropionic acid (3-MPA)-induced tonic extension in mice; experiment: protection against 3-mercaptopropionic acid (3-MPA)-induced tonic extension in mice; assay type: in vivo; details: 100 mg/kg orally, 30 minutes prior to 3-MPA (120 mg/kg s.c.)
Procedure: (§8) In the second study the anti-convulsant effect of the compounds of the present invention was examined in two seizure models; bicuculline-induced tonic extension in mice and 3-mercaptopropionic acid (3-MPA)-induced tonic extension in mice.
(§9) In the bicuculline study, the ability of the compounds of the present invention to protect against tonic extension (involving rigidity) was evaluated as follows. Each test compound was administered to a group of ten mice at a dose of 10 mg/kg, 3 hours prior to the i.v. administration of bicuculline (0.7 mg/kg). Anticonvulsant activity in this test is expressed as percentage of animals tested. The results are given in Table II, column 6, and indicate that several compounds display significant anticonvulsive activity in this test. The anticonvulsant effect of the compounds has also been tested with respect to the tonic extension induced by 3-mercaptopropionic acid (120 mg/kg subcutaneously) in mice.
In the 3-MPA assay, the compounds of the present invention are administered orally at a dose of 100 mg/kg 30 minutes prior to administration of 3-MPA. Each compound was tested on a group of 5 mice; if more than 1 mouse was protected, a second group of 5 mice was tested.

[5] = tested on: bicuculline-induced tonic extension in mice; experiment: protection against bicuculline-induced tonic extension in mice; assay type: in vivo; details: Mus musculus, iv, 3 hours prior to bicuculline 0.7 mg/kg i.v., read-out: Anticonvulsive effect (versus Bicuculline) (% Protection)
Procedure: as §8, §9

[6] = acute toxicity after oral administration to mice (LD50); details: mouse, in vivo, 15 days mortality
Procedure: The acute toxicity of the compounds of the present invention was studied after oral administration to mice. The products to be tested, suspended in a 1% tragacanth gum mucilage, were administered by means of an intragastric probe to groups of three male mice which had fasted since the preceding day. The doses tested are a function of the effect observed and can vary from 3,000 to 3 mg/kg or less. The mortality was recorded for 15 days. The lethal dose for 50% of the animals (LD50) was calculated according to the method of J. Litchfield and F. Wilcoxon, J. Pharmacol. Exp. Ther., 96, 99 (1949) and expressed in mg/kg. The effect of the products on the behaviour of the animals is observed until 5 to 6 hours after the treatment indicated above and after 24 hours, using a method derived from that of S. Irwin, described by R. A. Turner, Screening Methods in Pharmacology, Chapter 3, pages 22-34, Academic Press, 1965. If anomalies are noted, the observation is prolonged and smaller doses are tested.

[7] = target: T2, α2 -adrenergic receptors (Cavia porcellus, UniProt Q60474); experiment: α2 antagonist and α2 agonist activity in isolated guinea pig ileum (clonidine)
T2 construct: from tissue; host or cells: isolated guinea pig ileum
T2 sequence (Q60474 1-464): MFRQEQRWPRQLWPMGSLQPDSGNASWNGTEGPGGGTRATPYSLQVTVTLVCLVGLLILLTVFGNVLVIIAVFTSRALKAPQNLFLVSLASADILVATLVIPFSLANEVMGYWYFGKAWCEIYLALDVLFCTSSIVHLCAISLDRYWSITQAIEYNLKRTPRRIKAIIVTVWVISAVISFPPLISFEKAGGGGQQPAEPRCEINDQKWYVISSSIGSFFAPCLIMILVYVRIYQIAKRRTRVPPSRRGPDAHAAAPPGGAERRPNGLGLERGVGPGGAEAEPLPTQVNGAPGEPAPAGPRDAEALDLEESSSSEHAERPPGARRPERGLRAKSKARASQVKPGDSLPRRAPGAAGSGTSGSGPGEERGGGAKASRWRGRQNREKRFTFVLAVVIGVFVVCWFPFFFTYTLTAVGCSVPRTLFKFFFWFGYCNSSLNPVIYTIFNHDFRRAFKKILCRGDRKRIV
Procedure: The α2 antagonist and α2 agonist activity of the compounds according to the invention was determined upon isolated organs according to a model described by G. M. Drews, Br. J. Pharmaco., 64, 293-300 (1978).
This model is based upon the principle that the stimulation of the cholinergic nervous transmissions of the guinea pig ileum causes the liberation of acetyl choline, which in turn causes contractions of the ileum.
The stimulation of the α2 -adrenergic receptors inhibits the activity of the cholinergic nerve and consequently reduces all response resulting from a timulation of the latter. Thus the contractions of the ileum induced by electric stimulation of the tissue are inhibited by clonidine, an α2 agonist, in proportion to the dose. This inhibition is specifically displaced by the α2 antagonists and not by the α1 antagonists.
The method utilized can be summarized as follows: three dose-response curves to clonidine are established at an interval of 60 minutes. Two concentrations of the product to be tested are added successively 10 minutes before the realization of the second and third clonidine curves. Next, after washing, a dose-response curve is established with the product to be tested.
The dose-response curves are calculated as a percentage of the maximum inhibition obtained for the first curve. In this system the products having an α2 antagonist activity displace the dose-response curve to clonidine. The α2 antagonist activity, expressed in pA2 value, shown in column 4, is calculated according to J. M. Van Rossum, Arch. Int. Pharmacodyn., 143, 299-300 (1963).
A reduction of the contractions induced by the tested product alone indicates an α2 agonist effect. This activity is expressed in--log ED50 (the--logarithm of the concentration of the product giving 50% of the maximum inhibition obtained with clonidine).
The higher the pA2 value, the higher the α2 antagonist activity; the higher the--log ED50 value (i.e., the pA2 agonist activity), the higher the α2 agonist activity.

[8] = tested on: peripheral vascular α2 receptors; experiment: inhibition of the pressor effect of BHT 920 in pithed rats; assay type: in vivo, rat; details: 1 mg/kg i.v., BHT 920 30 μg/kg i.v.
Procedure: The α2 antagonist activity of the compounds is evaluated by the inhibition of the pressor effect (blood pressure elevation), of a specific α2 agonist agent, 4H-Thiazolo[4,5-b]azetin-2-amine, 5,6,7,8-tetrahydro-6-(2-propenyl)-, dihydrochloride, designated as BHT 920 at a concentration of 30 μg/kg i.v.) according to a method described by J. C. Van Meel et al., J. Pharmacol. Exp. Ther., 219, 760-767 (1981).
The compound to be tested is administered at 1 mg/kg i.v. The ability of the compounds tested to antagonize the pressor effects of BHT 920 is determined and expressed as percentage of inhibition. Any direct hypertensive (=α2 agonist) activity of the compounds under test can likewise be detected.

## CC(Cc1c[nH]cn1)(c1ccccc1)c1ccccc1 [Compound 10, 4(5)-[1-(2,2-diphenyl)-propyl]imidazole]
[1]
  α2 Antagonist (% Inhibition of the Antihypertension of Clonidine): 46%
[2]
  inhibition at 0.1 µM: 6%
[3]
  % Inhibition of the Specific Binding at 10^-7 M for α1 Recep.: 0%
[4]
  anticonvulsant effect versus 3-MPA (in words): potent anticonvulsant effect
[5]
  responders at 10 mg/kg: 27%

## c1ccc(-c2ccc(C(Cc3c[nH]cn3)c3ccccc3)cc2)cc1 (centres unmarked) [Compound 29, 4(5)-{[2-(4-biphenyl)-2-phenyl]ethyl}imidazole]
[6]
  LD50 at 360 h: > 300 mg/kg
[2]
  inhibition at 0.1 µM: 23%
[3]
  % Inhibition of the Specific Binding at 10^-7 M for α1 Recep.: 15%
[4]
  anticonvulsant effect versus 3-MPA (in words): potent anticonvulsant effect

## Cc1ccc(C(Cc2c[nH]cn2)c2ccccc2)c(C)c1 (centres unmarked) [Compound 24]
[1]
  α2 Antagonist (% Inhibition of the Antihypertension of Clonidine): 93%
[2]
  inhibition at 0.1 µM: 34%
[3]
  % Inhibition of the Specific Binding at 10^-7 M for α1 Recep.: 0%
[4]
  anticonvulsant effect versus 3-MPA (in words): potent anticonvulsant effect
[5]
  responders at 10 mg/kg: 0%

## CC(O)(c1c[nH]cn1)C(c1ccccc1)c1ccccc1 (centres unmarked) [Compound 3]
[1]
  α2 Antagonist (% Inhibition of the Antihypertension of Clonidine): 67%
[2]
  inhibition at 0.1 µM: 10%
[3]
  % Inhibition of the Specific Binding at 10^-7 M for α1 Recep.: 0%
[4]
  anticonvulsant effect versus 3-MPA (in words): potent anticonvulsant effect
[5]
  responders at 10 mg/kg: 10%

## Cc1[nH]cnc1CC(c1ccccc1)c1ccccc1 [Compound 7, 4(5)-(2,2-diphenylethyl)-5(4)-methyl imidazole]
[7]; 50% of maximum inhibition obtained with clonidine, read-out: α2 Agonist Activity (-log ED50) (converted)
  EC50: 2000 nM
[7]; versus clonidine, read-out: α2 Antagonist Activity (pA2) (converted)
  Kb: 50.1 nM
[8]
  α2 antagonist activity, inhibition of pressor effect of BHT 920 (in words): very active as α2 antagonist agents
[1]
  α2 Antagonist (% Inhibition of the Antihypertension of Clonidine): 82%
[2]
  inhibition at 0.1 µM: 23%
[3]
  % Inhibition of the Specific Binding at 10^-7 M for α1 Recep.: 12%
[5]
  responders at 10 mg/kg: 20%

## Fc1ccccc1C(Cc1c[nH]cn1)c1ccccc1 (centres unmarked) [Compound 28, 4(5)-{[2-(2-fluorophenyl)-2-phenyl]ethyl}imidazole]
[6]
  LD50 at 360 h: 94 mg/kg
[2]
  inhibition at 0.1 µM: 95%
  affinity for α2 receptors (in words): high affinity
[3]
  % Inhibition of the Specific Binding at 10^-7 M for α1 Recep.: 8%
[4]
  anticonvulsant effect versus 3-MPA (in words): potent anticonvulsant effect

## Cc1ccc(C(Cc2c[nH]cn2)c2ccccc2)cc1C (centres unmarked) [Compound 22]
[6]
  LD50 at 360 h: 155 mg/kg
[8]
  α2 antagonist activity, inhibition of pressor effect of BHT 920 (in words): very active as α2 antagonist agents
[1]
  α2 Antagonist (% Inhibition of the Antihypertension of Clonidine): 57%
[2]
  inhibition at 0.1 µM: 22%
[3]
  % Inhibition of the Specific Binding at 10^-7 M for α1 Recep.: 4%
[5]
  responders at 10 mg/kg: 20%

## COc1ccc(C(Cc2c[nH]cn2)c2ccc(OC)cc2)cc1 [Compound 23]
[8]
  α2 antagonist activity, inhibition of pressor effect of BHT 920 (in words): very active as α2 antagonist agents
[1]
  α2 Antagonist (% Inhibition of the Antihypertension of Clonidine): 40%
[2]
  inhibition at 0.1 µM: 20%
[3]
  % Inhibition of the Specific Binding at 10^-7 M for α1 Recep.: 0%
[5]
  responders at 10 mg/kg: 10%

## Fc1cccc(F)c1C(Cc1c[nH]cn1)c1ccccc1 (centres unmarked) [Compound 27, 4(5)-{[2-(2-fluorophenyl)-2-(6'-fluorophenyl)]ethyl}imidazole]
[6]
  LD50 at 360 h: 173 mg/kg
[2]
  inhibition at 0.1 µM: 86%
  affinity for α2 receptors (in words): high affinity
[3]
  % Inhibition of the Specific Binding at 10^-7 M for α1 Recep.: 14%
[4]
  anticonvulsant effect versus 3-MPA (in words): potent anticonvulsant effect
